# Data as given in article PMC12655351, “Synthesis and Anticancer Activity Evaluation of New 5-((5-Nitrofuran-2-yl)allylidene)-2-thioxo-4-thiazolidinones” (Pharmaceuticals, 2025).
# Legend:
# SF-268 [1] = assay: cells; details: Homo sapiens, SF-268, 48 h; for CC50: read-out: LC50, SF-268, 48 h
# Breast cancer = assay: cells; details: Homo sapiens; for GI50: read-out: MG_MID GI50; for CC50: read-out: MG_MID LC50
# CCRF-CEM = assay: cells; details: Homo sapiens, 48 h
# SK-MEL-5 [2] = assay: cells; details: Homo sapiens, SK-MEL-5, 48 h; for CC50: read-out: LC50, SK-MEL-5, 48 h
# DU-145 = assay: cells; details: Homo sapiens, DU-145, 48 h; for CC50: read-out: LC50, DU-145, 48 h
# UACC-257 = details: UACC-257, 48 h
# [3] = system: panel of 60 cancer cell lines; assay: cells; details: Homo sapiens, read-out: MG_MID GI50
# OVCAR-5 = assay: NCI-60 SRB screen; details: OVCAR-5, 48 h; for GI50: Homo sapiens
# T-47D = details: 48 h
# SK-OV-3 = assay: cells; details: Homo sapiens, SK-OV-3, 48 h; for CC50: read-out: LC50, SK-OV-3, 48 h
# [4] = system: Non-small cell lung cancer; assay: cells; details: Homo sapiens; for GI50: read-out: MG_MID GI50; for CC50: read-out: MG_MID LC50
# NCI-H322M = assay: NCI-60 SRB screen; details: 48 h; for GI50 / CC50: Homo sapiens; for CC50: read-out: LC50, NCI-H322M, 48 h
# Leukemia [5] = assay: cells; details: Homo sapiens; for GI50: read-out: MG_MID GI50; for CC50: read-out: MG_MID LC50
# UO-31 = assay: cells; details: Homo sapiens, UO-31, 48 h; for CC50: read-out: LC50, UO-31, 48 h
# MDA-MB-468 = assay: NCI-60 SRB screen; details: MDA-MB-468, 48 h; for GI50 / CC50: Homo sapiens; for CC50: read-out: LC50, MDA-MB-468, 48 h
# KM12 = assay: NCI-60 SRB screen; details: KM12, 48 h
# RXF 393 = assay: NCI-60 SRB screen; details: RXF 393, 48 h; for GI50: Homo sapiens
# SNB-19 = assay: NCI-60 SRB screen; details: SNB-19, 48 h; for GI50 / CC50: Homo sapiens; for CC50: read-out: LC50, SNB-19, 48 h
# HCC-2998 = details: for TGI: HCC-2998, 48 h
# Melanoma = Melanoma subpanel
# NCI/ADR-RES = assay: cells; details: Homo sapiens, 48 h; for CC50: read-out: LC50, NCI/ADR-RES, 48 h
# Leukemia [6] = details: Leukemia subpanel
# SF-268 [7] = details: SF-268, 48 h
# SF-539 = details: for TGI: SF-539, 48 h
# ACHN = assay: NCI-60 SRB screen; details: 48 h; for GI50 / CC50: Homo sapiens; for CC50: read-out: LC50, ACHN, 48 h
# OVCAR-3 = details: for TGI: OVCAR-3, 48 h
# OVCAR-8 [8] = assay: cells; details: Homo sapiens, OVCAR-8, 48 h; for CC50: read-out: LC50, OVCAR-8, 48 h
# HCT-116 = details: HCT-116, 48 h
# OVCAR-8 [9] = details: OVCAR-8, 48 h
# SK-MEL-5 [10] = details: for TGI: SK-MEL-5, 48 h
smiles,measurement,setting,value
"O=C(O)C(c1ccccc1)N1C(=O)/C(=C/C=C/c2ccc([N+](=O)[O-])o2)SC1=S (stereo not shown) [9b, 2-((Z)-5-((E)-3-(5-Nitrofuran-2-yl)allylidene)-4-oxo-2-thioxothiazolidin-3-yl)-2-phenylacetic acid]",GI50,SF-268 [1],10.8 µM
same,CC50,SF-268 [1],52.2 µM
same,GI50,Breast cancer,5.89 µM
same,CC50,Breast cancer,49.4 µM
same,GI50,CCRF-CEM,3.12 µM
same,GI50,SK-MEL-5 [2],3.38 µM
same,CC50,SK-MEL-5 [2],38.8 µM
same,GI50,DU-145,11.5 µM
same,CC50,DU-145,48.8 µM
same,TGI,UACC-257,27.2 µM
same,GI50,[3],9.03 µM
same,GI50,OVCAR-5,12.7 µM
same,TGI,OVCAR-5,25.8 µM
same,TGI,T-47D,39.4 µM
same,GI50,SK-OV-3,15.9 µM
same,CC50,SK-OV-3,56.3 µM
same,GI50,[4],11.1 µM
same,CC50,[4],73.2 µM
same,TGI,NCI-H322M,26.6 µM
same,GI50,NCI-H322M,13.4 µM
same,CC50,NCI-H322M,52.5 µM
same,GI50,Leukemia [5],6.64 µM
same,CC50,Leukemia [5],> 100 µM
same,GI50,UO-31,10.8 µM
same,CC50,UO-31,50.7 µM
same,GI50,MDA-MB-468,2.74 µM
same,CC50,MDA-MB-468,45.6 µM
same,TGI,MDA-MB-468,10.4 µM
same,GI50,KM12; Homo sapiens,6.66 µM
same,TGI,KM12,20.6 µM
same,GI50,RXF 393,4.01 µM
same,TGI,RXF 393,14.6 µM
same,GI50,SNB-19,13.5 µM
same,CC50,SNB-19,51.4 µM
same,TGI,SNB-19,26.3 µM
same,TGI,HCC-2998,29.9 µM
same,MG_MID TGI,Melanoma,20.0 µM
same,GI50,NCI/ADR-RES,13.5 µM
same,CC50,NCI/ADR-RES,84.9 µM
same,MG_MID TGI,Leukemia [6],24.2 µM
same,TGI,SF-268 [7],23.7 µM
same,TGI,SF-539,24.7 µM
same,TGI,ACHN,21.4 µM
same,GI50,ACHN,9.25 µM
same,CC50,ACHN,47.2 µM
same,TGI,OVCAR-3,21.4 µM
same,GI50,OVCAR-8 [8],11.1 µM
same,CC50,OVCAR-8 [8],58.5 µM
same,TGI,HCT-116,8.14 µM
same,TGI,OVCAR-8 [9],25.5 µM
same,TGI,SK-MEL-5 [10],13.7 µM
"O=C(O)CCN1C(=O)/C(=C/C=C/c2ccc([N+](=O)[O-])o2)SC1=S [12b, 3-((Z)-5-((E)-3-(5-Nitrofuran-2-yl)allylidene)-4-oxo-2-thioxothiazolidin-3-yl)propanoic acid]",GI50,SF-268 [1],1.44 µM
same,CC50,SF-268 [1],7.02 µM
same,GI50,Breast cancer,1.09 µM
same,CC50,Breast cancer,37.4 µM
same,GI50,CCRF-CEM,0.25 µM
same,GI50,SK-MEL-5 [2],1.03 µM
same,CC50,SK-MEL-5 [2],4.87 µM
same,GI50,DU-145,2.61 µM
same,CC50,DU-145,33.3 µM
same,TGI,UACC-257,4.08 µM
same,GI50,[3],1.68 µM
same,GI50,OVCAR-5,1.99 µM
same,TGI,OVCAR-5,3.70 µM
same,TGI,T-47D,3.55 µM
same,GI50,SK-OV-3,4.7 µM
same,CC50,SK-OV-3,43.7 µM
same,GI50,[4],2.59 µM
same,CC50,[4],25.9 µM
same,TGI,NCI-H322M,19.8 µM
same,GI50,NCI-H322M,7.06 µM
same,CC50,NCI-H322M,44.7 µM
same,GI50,Leukemia [5],0.66 µM
same,CC50,Leukemia [5],> 100 µM
same,GI50,UO-31,1.05 µM
same,CC50,UO-31,4.84 µM
same,GI50,MDA-MB-468,0.66 µM
same,CC50,MDA-MB-468,5.71 µM
same,TGI,MDA-MB-468,2.14 µM
same,TGI,KM12,3.37 µM
same,GI50,RXF 393,1.58 µM
same,TGI,RXF 393,3.02 µM
same,GI50,SNB-19,2.3 µM
same,CC50,SNB-19,22.9 µM
same,TGI,SNB-19,6.37 µM
same,growth GP,"HCC-2998; HCC-2998, 10 μM, 48 h",-95.81%
same,TGI,HCC-2998,9.26 µM
same,MG_MID TGI,Melanoma,2.60 µM
same,GI50,NCI/ADR-RES,1.21 µM
same,CC50,NCI/ADR-RES,24.8 µM
same,MG_MID TGI,Leukemia [6],2.52 µM
same,TGI,SF-268 [7],3.18 µM
same,growth GP,"SF-539; SF-539, 10 μM, 48 h",-96.95%
same,TGI,SF-539,3.65 µM
same,growth GP,ACHN; 10 μM,-99.00%
same,TGI,ACHN,2.97 µM
same,GI50,ACHN,1.61 µM
same,CC50,ACHN,5.46 µM
same,growth GP,"OVCAR-3; OVCAR-3, 10 μM, 48 h",-96.70%
same,TGI,OVCAR-3,3.01 µM
same,GI50,OVCAR-8 [8],1.84 µM
same,CC50,OVCAR-8 [8],28.2 µM
same,TGI,HCT-116,3.57 µM
same,TGI,OVCAR-8 [9],7.11 µM
same,growth GP,"SK-MEL-5 [10]; SK-MEL-5, 10 μM, 48 h",-97.62%
same,TGI,SK-MEL-5 [10],2.24 µM
